Patent publication US9365589B2, “C5, C6 oxacyclic-fused thiazine dioxide compounds as BACE inhibitors, compositions, and their use” (Merck Sharp & Dohme Corp., priority 2012, dated 2016)
Like-named read-outs stand apart in the source and are kept apart here.

Tests used:
[1] = target: soluble human BACE1 catalytic domain (Homo sapiens (Human), UniProt P56817); test: BACE1 HTRF FRET Assay; assay type: biochemical; settings: Ki calculated from IC50 using the Cheng-Prusoff equation; QSY7-APPswe-Eu substrate, pH 5.0
Chain of soluble human BACE1 catalytic domain (P56817 75-416): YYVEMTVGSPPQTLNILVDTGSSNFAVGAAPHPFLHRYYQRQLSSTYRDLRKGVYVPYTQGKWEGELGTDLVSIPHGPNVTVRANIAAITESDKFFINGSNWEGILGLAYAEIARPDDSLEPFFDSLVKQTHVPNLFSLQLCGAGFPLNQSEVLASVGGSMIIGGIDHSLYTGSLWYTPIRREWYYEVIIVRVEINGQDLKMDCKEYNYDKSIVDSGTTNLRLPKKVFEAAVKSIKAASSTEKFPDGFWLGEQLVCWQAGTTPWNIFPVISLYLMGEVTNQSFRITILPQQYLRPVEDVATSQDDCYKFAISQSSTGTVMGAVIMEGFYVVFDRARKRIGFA
Excerpt: A homogeneous time-resolved FRET assay can be used to determine IC50 values for inhibitors of the soluble human BACE1 catalytic domain. This assay monitors the increase of 620 nm fluorescence that resulted from BACE1 cleavage of an APPswedish APP^swe mutant peptide FRET substrate (QSY7-[…]-Europium-amide). This substrate contains an N-terminal QSY7 moiety that serves as a quencher of the C-terminal Europium fluorophore (620 nm Em). In the absence of enzyme activity, 620 nm fluorescence is low in the assay and increased linearly over 3 hours in the presence of uninhibited BACE1 enzyme Inhibition of BACE1 cleavage of the QSY7-APP^swe-Eu substrate by inhibitors is manifested as a suppression of 620 nm fluorescence.
Reactions are initiated by addition of 10 μl of 600 nM QSY7-APP^swe-Eu substrate (200 nM final) to give a final reaction volume of 30 μl in a 384 well Nunc HTRF plate. The reactions are incubated at 30° C. for 1.5 hours. The 620 nm fluorescence is then read on a Rubystar HTRF plate reader (BMG Labtechnologies) using a 50 millisecond delay followed by a 400 millisecond acquisition time window Inhibitor IC50 values are derived from non-linear regression analysis of concentration response curves.

[2] = target: purified human autoBACE-2 (Homo sapiens (Human), UniProt Q9Y5Z0); test: BACE-2 Assay (BACE-HTRF assay); assay type: biochemical
Chain of purified human autoBACE-2 (Q9Y5Z0 63-473 limits assumed): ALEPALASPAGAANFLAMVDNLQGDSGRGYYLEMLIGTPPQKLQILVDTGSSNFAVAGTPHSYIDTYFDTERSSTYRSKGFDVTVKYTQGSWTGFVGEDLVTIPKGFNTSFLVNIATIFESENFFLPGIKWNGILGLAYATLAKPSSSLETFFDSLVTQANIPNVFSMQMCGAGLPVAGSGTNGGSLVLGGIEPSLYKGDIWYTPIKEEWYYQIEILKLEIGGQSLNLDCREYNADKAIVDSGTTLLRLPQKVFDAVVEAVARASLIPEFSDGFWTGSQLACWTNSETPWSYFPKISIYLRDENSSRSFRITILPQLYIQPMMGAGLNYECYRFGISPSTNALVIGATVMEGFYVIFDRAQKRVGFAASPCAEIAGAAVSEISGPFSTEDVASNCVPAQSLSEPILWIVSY
Protocol: DMSO is present at 5% final concentration in the assay. Following laser excitation of sample wells at 320 nm, the fluorescence signal at 620 nm is collected for 400 ms following a 50 μs delay on a RUBYstar HTRF plate reader (BMG Labtechnologies). Raw RFU data is normalized to maximum (1.0 nM BACE/DMSO) and minimum (no enzyme/DMSO) RFU values. […] The Ki values are calculated from the IC50 using the Cheng-Prusoff equation.

Work on `CC1(C)C(=N)N[C@@]2(c3cc(NC(=O)c4ccc(F)cn4)ccc3F)COC(CF)[C@H]2S1(=O)=O` (single isomer, unassigned) [Example 4a] yielded a Ki [1] of 3 nM and a Ki ([2]; BACE2 Ki (nM)) of 1 nM.
For `CC1(C)C(=N)N[C@@]2(c3cc(NC(=O)c4ccc(F)cn4)ccc3F)COC(CF)[C@H]2S1(=O)=O` (single isomer, unassigned) [Example 4b], the Ki [1] was 42 nM and the Ki ([2]; BACE2 Ki (nM)) was 18 nM.
`COc1cnc(C(=O)Nc2ccc(F)c([C@]34COC(CF)[C@H]3S(=O)(=O)C(C)(C)C(=N)N4)c2)cn1` (single isomer, unassigned) [Example 4e] gave a Ki ([2]; BACE2 Ki (nM)) of 11 nM.
For `COc1cnc(C(=O)Nc2ccc(F)c([C@]34COC(CF)[C@H]3S(=O)(=O)C(C)(C)C(=N)N4)c2)cn1` (single isomer, unassigned) [Example 4h], the Ki ([2]; BACE2 Ki (nM)) was 476 nM.
For `CC1(C)C(=N)N[C@@]2(c3cc(NC(=O)c4ccc(F)cn4)ccc3F)COC[C@H]2S1(=O)=O` [Example 1a], the Ki [1] was 3.5 nM and the Ki ([2]; read-out: BACE2 Ki) was 1 nM.
`CC1(C)C(=N)N[C@@]2(c3cc(NC(=O)c4ccc(C(F)(F)F)cn4)ccc3F)COC[C@H]2S1(=O)=O` [Example 1aa] gave a Ki [1] of 3 nM and a Ki ([2]; read-out: BACE2 Ki) of 8 nM.
`CC1(C)C(=N)N[C@@]2(c3cc(NC(=O)c4ccc(Cl)cn4)ccc3F)COC[C@H]2S1(=O)=O` [Example 1b] was tested, and the Ki [1] was 2.5 nM and the Ki ([2]; read-out: BACE2 Ki) was 1 nM.
`COc1ccc(C(=O)Nc2ccc(F)c([C@]34COC[C@H]3S(=O)(=O)C(C)(C)C(=N)N4)c2)nc1` [Example 1c] showed a Ki [1] of 5.8 nM and a Ki ([2]; read-out: BACE2 Ki) of 3 nM.
In the case of `COc1cnc(C(=O)Nc2ccc(F)c([C@]34COC[C@H]3S(=O)(=O)C(C)(C)C(=N)N4)c2)cn1` [Example 1d], the Ki [1] is reported as 6.2 nM and the Ki ([2]; read-out: BACE2 Ki) is reported as 5 nM.
Work on `Cn1ccc(C(=O)Nc2ccc(F)c([C@]34COC[C@H]3S(=O)(=O)C(C)(C)C(=N)N4)c2)n1` [Example 1e] yielded a Ki [1] of 13 nM and a Ki ([2]; read-out: BACE2 Ki) of 2 nM.
For `Cc1cc(C(=O)Nc2ccc(F)c([C@]34COC[C@H]3S(=O)(=O)C(C)(C)C(=N)N4)c2)no1` [Example 1f], the Ki [1] was 201 nM and the Ki ([2]; read-out: BACE2 Ki) was 24 nM.
Compound `CC1(C)C(=N)N[C@@]2(c3cc(NC(=O)c4cn5ccsc5n4)ccc3F)COC[C@H]2S1(=O)=O` [Example 1g] has a Ki [1] of 25 nM and a Ki ([2]; read-out: BACE2 Ki) of 3 nM.
With `CC1(C)C(=N)N[C@@]2(c3cc(NC(=O)c4cnc(OCCF)cn4)ccc3F)COC[C@H]2S1(=O)=O` [Example 1h] the Ki [1] was 7 nM and the Ki ([2]; read-out: BACE2 Ki) was 18 nM.
Compound `Cc1cc(C(=O)Nc2ccc(F)c([C@]34COC[C@H]3S(=O)(=O)C(C)(C)C(=N)N4)c2)on1` [Example 1i] has a Ki [1] of 559 nM and a Ki ([2]; read-out: BACE2 Ki) of 93 nM.
With `Cn1cc(C(=O)Nc2ccc(F)c([C@]34COC[C@H]3S(=O)(=O)C(C)(C)C(=N)N4)c2)c(C(F)(F)F)n1` [Example 1j] the Ki [1] was 1100 nM and the Ki ([2]; read-out: BACE2 Ki) was 309 nM.
For `CC1(C)C(=N)N[C@@]2(c3cc(NC(=O)c4ncc(Cl)cc4F)ccc3F)COC[C@H]2S1(=O)=O` [Example 1k], the Ki [1] was 3 nM and the Ki ([2]; read-out: BACE2 Ki) was 1 nM.
Work on `Cc1nc(C(=O)Nc2ccc(F)c([C@]34COC[C@H]3S(=O)(=O)C(C)(C)C(=N)N4)c2)c(C)o1` [Example 1l] yielded a Ki [1] of 6 nM and a Ki ([2]; read-out: BACE2 Ki) of 1 nM.
In the case of `COCC(=O)Nc1ccc(F)c([C@]23COC[C@H]2S(=O)(=O)C(C)(C)C(=N)N3)c1` [Example 1m], the Ki [1] is reported as 74 nM and the Ki ([2]; read-out: BACE2 Ki) is reported as 5 nM.
`CC1(C)C(=N)N[C@@]2(c3cc(NC(=O)C(F)F)ccc3F)COC[C@H]2S1(=O)=O` [Example 1n] was tested, and the Ki [1] was 258 nM and the Ki ([2]; read-out: BACE2 Ki) was 33 nM.
For `CO[C@@H](C)C(=O)Nc1ccc(F)c([C@]23COC[C@H]2S(=O)(=O)C(C)(C)C(=N)N3)c1` [Example 1o], the Ki [1] was 213 nM and the Ki ([2]; read-out: BACE2 Ki) was 42 nM.
With `CO[C@H](C)C(=O)Nc1ccc(F)c([C@]23COC[C@H]2S(=O)(=O)C(C)(C)C(=N)N3)c1` [Example 1p] the Ki [1] was 151 nM and the Ki ([2]; read-out: BACE2 Ki) was 16 nM.
For `CC1(C)C(=N)N[C@@]2(c3cc(NC(=O)c4cnc(C(F)(F)F)cn4)ccc3F)COC[C@H]2S1(=O)=O` [Example 1q], the Ki [1] was 13 nM and the Ki ([2]; read-out: BACE2 Ki) was 35 nM.
With `CC1(C)C(=N)N[C@@]2(c3cc(NC(=O)c4ccc(C#N)cn4)ccc3F)COC[C@H]2S1(=O)=O` [Example 1r] the Ki [1] was 1 nM and the Ki ([2]; read-out: BACE2 Ki) was 1 nM.
For `COc1cnc(C(=O)Nc2ccc(F)c([C@]34COC[C@H]3S(=O)(=O)C(C)(C)C(=N)N4)c2)c(C)c1` [Example 1s], the Ki [1] was 4 nM and the Ki ([2]; read-out: BACE2 Ki) was 1 nM.
`COc1cnc(C(=O)Nc2ccc(F)c([C@]34COC[C@H]3S(=O)(=O)C(C)(C)C(=N)N4)c2)c(C)n1` [Example 1t] was tested, and the Ki [1] was 10 nM and the Ki ([2]; read-out: BACE2 Ki) was 6 nM.
In the case of `Cc1cc(C#N)cnc1C(=O)Nc1ccc(F)c([C@]23COC[C@H]2S(=O)(=O)C(C)(C)C(=N)N3)c1` [Example 1u], the Ki [1] is reported as 1 nM and the Ki ([2]; read-out: BACE2 Ki) is reported as 1 nM.
Work on `CC1(C)C(=N)N[C@@]2(c3cc(NC(=O)c4cnsn4)ccc3F)COC[C@H]2S1(=O)=O` [Example 1v] yielded a Ki [1] of 8 nM and a Ki ([2]; read-out: BACE2 Ki) of 1 nM.
`C#CCOc1cnc(C(=O)Nc2ccc(F)c([C@]34COC[C@H]3S(=O)(=O)C(C)(C)C(=N)N4)c2)cn1` [Example 1w] gave a Ki [1] of 1 nM and a Ki ([2]; read-out: BACE2 Ki) of 2 nM.
Compound `CC1(C)C(=N)N[C@@]2(c3cc(NC(=O)c4ccc(OCF)cn4)ccc3F)COC[C@H]2S1(=O)=O` [Example 1x] has a Ki [1] of 3 nM and a Ki ([2]; read-out: BACE2 Ki) of 2 nM.
In the case of `C#CCOc1ccc(C(=O)Nc2ccc(F)c([C@]34COC[C@H]3S(=O)(=O)C(C)(C)C(=N)N4)c2)nc1` [Example 1y], the Ki [1] is reported as 1 nM and the Ki ([2]; read-out: BACE2 Ki) is reported as 7 nM.
For `CC1(C)C(=N)N[C@@]2(c3cc(NC(=O)c4ccn(C(F)F)n4)ccc3F)COC[C@H]2S1(=O)=O` [Example 1z], the Ki [1] was 1 nM and the Ki ([2]; read-out: BACE2 Ki) was 1 nM.
Work on `C[C@@]1(c2ccc(F)cc2)C(=N)N[C@@]2(c3cc(NC(=O)c4ccc(F)cn4)ccc3F)COC[C@H]2S1(=O)=O` [Example 8a] yielded a Ki [1] of 84 nM and a Ki ([2]; BACE2 Ki (nM)) of 9 nM.
`C[C@]1(c2ccc(F)cc2)C(=N)N[C@@]2(c3cc(NC(=O)c4ccc(F)cn4)ccc3F)COC[C@H]2S1(=O)=O` [Example 8b] was tested, and the Ki [1] was 1 nM and the Ki ([2]; BACE2 Ki (nM)) was 1 nM.
In the case of `C[C@@]1(C2CC2)C(=N)N[C@@]2(c3cc(NC(=O)c4ccc(F)cn4)ccc3F)COC[C@H]2S1(=O)=O` [Example 13a], the Ki [1] is reported as 39 nM and the Ki ([2]; read-out: BACE2 Ki) is reported as 6 nM.
Compound `C[C@]1(C2CC2)C(=N)N[C@@]2(c3cc(NC(=O)c4ccc(F)cn4)ccc3F)COC[C@H]2S1(=O)=O` [Example 13b] has a Ki [1] of 62 nM and a Ki ([2]; read-out: BACE2 Ki) of 11 nM.
